This is an account of results in patent publication US20100168228A1, “NOVEL CHEMOTHERAPEUTIC AGENTS AGAINST INFLAMMATION AND CANCER” (RELIANCE LIFE SCIENCES PVT. LTD., priority 2006, published 2010).

Series [1] relates to Jurkat cells. Description: Cytotoxicity assay (MTT), Jurkat. It counts as cell-based, human. Here is the method: FIG. 8: CAMVE potentiates apoptosis induced by TNF or chemotherapeutic agents. A1. Jurkat cells were incubated at 37° C. with TNF, in the presence and absence of 10 μM of CAMVE for 72 h and the viable cells were assayed using MTT reagent. The results are shown as the mean±S.D. from triplicate culture. A2. Jurkat cells (1×10^6 cells/ml) were pretreated with CAMVE for 3 h as indicated and incubated with TNF for 24 hrs, and PARP cleavage was determined by FACS analysis as described in the “Materials and Methods”. M2 gated population represents the percentage apoptotic population B. SA-LPS/Jkt cells pretreated with 10 μM of CAMVE for 3 h, were treated with 1 μM of cis-plastin, doxorubicin, taxol or vincristine for 72 h. The cytotoxicity was then assayed by MTT method. Results are shown as the mean±S.D. from triplicate samples.
FIG. 11: Dose response for compound 27 induced loss of cell viability and cell proliferation in Jurkat cell line. […] Error bars indicate±S.D.
Cytotoxicity was assayed by the modified tetrazolium salt 3-(4,5-dimethylthiazol-2-yl)-2,5-diphenyltetrazolium bromide (MTT) assay as described by Plumb, J A et al. (Cancer Res. 1989 Aug. 15; 49(16):4435-4440). […]

In series [2] the test system is Jurkat cells. Put plainly: PARP cleavage assay using flow cytometry, Jurkat. It is filed as cell-based, human. Here is the method: FIG. 8: CAMVE potentiates apoptosis induced by TNF or chemotherapeutic agents. A1. Jurkat cells were incubated at 37° C. with TNF, in the presence and absence of 10 μM of CAMVE for 72 h and the viable cells were assayed using MTT reagent. The results are shown as the mean±S.D. from triplicate culture. A2. Jurkat cells (1×10^6 cells/ml) were pretreated with CAMVE for 3 h as indicated and incubated with TNF for 24 hrs, and PARP cleavage was determined by FACS analysis as described in the “Materials and Methods”. […]
FIG. 15: Induction of apoptosis and PARP cleavage by compound 27. Jurkat cells were treated with 100 and 500 nM of the compound for indicated time period and PARP cleavage was determined using FACS analysis as described in the “Materials and Methods”. […]
Extent of PARP cleavage is determined using polyclonal antibody specifically recognizing the 85 kDa fragment of cleaved PARP (NSB 699 Novus Biologicals) and can be used as a marker for detecting apoptotic cells. […] Cells were washed twice with wash buffer (PBS+1% heat inactivated FBS) and analysed using FACS.
PARP Cleavage Assay using Flow Cytometry: Extent of PARP cleavage is determined using polyclonal antibody specifically recognizing the 85 kDa fragment of cleaved PARP (NSB 699 Novus Biologicals) and can be used as a marker for detecting apoptotic cells. […]

A further series concerns RAW 264.7 cells. Put plainly: Nitrite quantification (Griess) in LPS stimulated macrophages. It is filed as cell-based, mouse. Conditions: for CONCENTRATION OF NITRITE μM ± SD: RAW 264.7 + LPS (200 ng/ml) + 10 μM compound, 24 h, LPS + DMSO control 14.560, basal 0.782. Here is the method:
NO2^− accumulation was used as an indicator of Nitric Oxide (NO) production in the medium as described previously (Green et al., 1982 Anal Biochem 126, 131-138). […] The isolated supernatants were mixed with an equal volume of Griess reagent (1% sulfanilamide, 0.1% naphthylenediamine dihydrochloride, and 2% phosphoric acid) and incubated at room temperature for 15 min. NaNO2 was used to generate a standard curve, and nitrite production was determined by measuring the optical density at 540 nm.
To estimate the anti-inflammatory effects of all the synthetic molecules listed in this study, we measured the accumulation of nitrite, the stable metabolite of NO, in the culture media using Griess reagent.
To investigate the effect of CAMVE on NO production, we measured the accumulation of nitrite, the stable metabolite of NO, in the culture media using Griess reagent. To investigate the effect of CAMVE on NO production, Raw 264.7 cells, pretreated with indicated concentrations of CAMVE for 1 h were incubated with LPS (250 ng/ml) for 24 h.

Another series deals with TNFα. Put plainly: Bioassay of TNFα production by LPS activated RAW 264.7 macrophages using L929 cell line. Conditions: Mus musculus; L929 + ActD + supernatant from LPS + compound (10 μM) treated RAW 264.7 macrophage; crystal violet; mean ± S.D. of triplicate; read-out: PERCENTAGE CELL SURVIVAL ± S.D. It counts as cell-based. Here is the method: Measurement of TNFα in culture medium or supernatant is performed using immunoassay and bioassay. Bioassay was used for the measurement of bioactive TNFα production in the culture medium.
TNFα secretion into the medium by LPS activated macrophage was assayed using L929 tumorigenic murine cells (ATCC) specifically sensitive to TNFα. L929 cell cytotoxicity assay was performed by a modified method (Sano et al., The Journal of Immunology, 1999, 163: 387-395 The Journal of Immunology, 1999, 163: 387-395) based on that described elsewhere (Flick D A, Gifford G E. J Immunol Methods. 1984 Mar. 30; 68(1-2): 167-175). Briefly, the L929 cells (log phase cells) were seeded into a flat bottom 96 well plates (6×10^4/well) in 100 μl volume of RPMI 1640 containing 2% FCS and incubated overnight at 37° C. in a 5% CO2 incubator. A working dilution of the culture supernatant collected from LPS (200 ng/ml) activated macrophage in a volume of 100 μl per well was first tested to obtain 70-75% cytotoxicity equivalent to […] of recombinant TNFα standard to the TNFα sensitive L929 cell line. After incubation of the L929 cells appropriate fixed dilution of the culture supernatant collected from the compound treated (10 μM) wells, containing the LPS stimulated macrophages in a volume of 100 μl with 2 μg/ml Actinomycin D (Act D) was taken and added to the L929 cells and the cells were incubated at room temperature for 15 min followed by 18 h incubation at 37° C. overnight with 5% CO2. On the next day the medium was removed and the cells were stained with 0.2% (w/v) crystal violet for 10 minutes. The wells were gently rinsed with water, and 33% acetic acid (100 μl/well) was added to extract the retained crystal violet. The absorbance at 570 nm was finally measured.
Tumor necrosis factor-α can cause direct cytotoxicity to the lung fibroblast cell line (L929). Bioassay of TNF α is designated on the basis of this cytotoxicity of TNF α, which can be used for the identification of murine TNF α activity in tissue culture supernatants. Culture supernatant collected from the synthetic molecules treated well containing LPS stimulated macrophage modulated the extent of cytotoxicity to the L929 cells (see Table 1).

`COC(=O)c1ccc(OC(=O)/C=C/c2ccc(O)c(O)c2)c(OC)c1` [compound 1, Methyl 4-{[(2E)-3-(3,4-dihydroxyphenyl)prop-2-enoyl]oxy}-3-methoxybenzoate]: the “cytotoxicity induced by chemotherapeutic agents (MTT)” value with Jurkat cells [1] (SA-LPS (100 ng/ml) activated Jurkat, 10 μM CAMVE 3 h, then 1 μM cis-platin, doxorubicin, taxol or vincristine 72 h) is reported as “significantly enhanced by CAMVE pretreatment”. Also, the “TNF induced PARP cleavage (apoptosis)” value with Jurkat cells [2] (pretreated 3 h, TNF 24 h) is “significant potentiation of PARP cleavage in a dose dependent manner”. Moreover, the “CONCENTRATION OF NITRITE μM ± SD” value in the series with RAW 264.7 cells was determined as 1.849 ± 0.214 µM. Also, the “LPS induced nitrite production” value in the series with RAW 264.7 cells (Raw 264.7 pretreated 1 h, LPS 250 ng/ml 24 h) was “inhibited by CAMVE treatment in a dose-dependent manner”. For the same molecule, the viability at 10 µM with TNFα turned out to be 73.2 ± 1.77%.

For the molecule `COc1cc([C@@H]2Oc3c(OC)cc(/C=C/C(=O)O)cc3[C@H]2C(=O)O)ccc1O` [compound 27, 5-[(E)-2-carboxyvinyl]-2β-(4-hydroxy-3-methoxyphenyl)-7-methoxy-2,3-dihydro-1-benzofuran-3α-carboxylic acid], the GI50 in the series on Jurkat cells [1] (Homo sapiens, Jurkat, MTT, 24 h and 48 h, read-out: GI50 (concentration causing 50% growth inhibition)) is roughly 100 nM. Moreover, in the series on Jurkat cells [2] (100 nM and 500 nM, increasing with time), the PARP cleavage entry is “significant PARP cleavage was achieved at 100 nM and 500 nM”. Also, in the series with RAW 264.7 cells, the “CONCENTRATION OF NITRITE μM ± SD” value is 5.027 ± 0.200 µM. Moreover, the viability at 10 µM in the series on TNFα was determined as 46.5 ± 1.02%.
